Experimental data taken from patent publication US10253002B2, “Compounds and methods of treating infections” (Neoculi Pty Ltd., priority 2013, dated 2019).
Several values for one entry are separate records, joined by “and”; a condition that tells them apart may be missing. Equal entries are not always repeated.

These compounds were tested on MRSA (assay: Broth microdilution MIC, Example 7 (NCL812 and analogues)). Settings: MRSA 1; 24 hours; duplicate lines per compound.
Assay type: cell-based, Staphylococcus aureus
Outline: (§1)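 Values are MICs in μg/ml from broth microdilution per CLSI, with growth scored against a drug-free well.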

SMILES	MIC (μg/ml) at 24 hours, MRSA 1
CCC(=NNC(=N)NN=C(CC)c1ccc(Cl)cc1)c1ccc(Cl)cc1.Cl [NCL 153]	32 µg/mL
CCCCC(=NNC(=N)NN=C(CCCC)c1ccc(Cl)cc1)c1ccc(Cl)cc1.Cl [NCL 154]	>128 µg/mL
C/C(=N\NC(=N)N/N=C(\C)c1ccc(Br)cc1)c1ccc(Br)cc1.Cl [NCL 155]	8 µg/mL
CCCC(=NNC(=N)NN=C(CCC)c1ccc(Cl)cc1)c1ccc(Cl)cc1.Cl [NCL 156]	>128 µg/mL
Cl.N=C(NN=Cc1ccc(Cl)cc1N)NN=Cc1ccc(Cl)cc1N [NCL 157]	2 µg/mL
CCC(=NNC(=N)NN=C(CC)c1ccc(Cl)cc1O)c1ccc(Cl)cc1O.Cl [NCL 158]	4 µg/mL
Cl.N=C(NN=C(c1ccc(Cl)cc1O)C1CCCC1)NN=C(c1ccc(Cl)cc1O)C1CCCC1 [NCL 159]	64 µg/mL
Cl.N=C(NN=Cc1ccc(OC(F)(F)F)cc1)NN=Cc1ccc(OC(F)(F)F)cc1 [NCL 160]	32 µg/mL and 64 µg/mL
CC(=NNC(=N)NN=C(C)c1ccc(N2CCNCC2)cc1)c1ccc(N2CCNCC2)cc1.Cl [NCL 161]	64 µg/mL and 128 µg/mL

Same assay, conditions: MRSA 2; 24 hours; duplicate lines per compound

SMILES	MIC (μg/ml) at 24 hours, MRSA 2 [µg/mL]
CCC(=NNC(=N)NN=C(CC)c1ccc(Cl)cc1)c1ccc(Cl)cc1.Cl [NCL 153]	16
CCCCC(=NNC(=N)NN=C(CCCC)c1ccc(Cl)cc1)c1ccc(Cl)cc1.Cl [NCL 154]	>128
C/C(=N\NC(=N)N/N=C(\C)c1ccc(Br)cc1)c1ccc(Br)cc1.Cl [NCL 155]	8
CCCC(=NNC(=N)NN=C(CCC)c1ccc(Cl)cc1)c1ccc(Cl)cc1.Cl [NCL 156]	>128
Cl.N=C(NN=Cc1ccc(Cl)cc1N)NN=Cc1ccc(Cl)cc1N [NCL 157]	2
CCC(=NNC(=N)NN=C(CC)c1ccc(Cl)cc1O)c1ccc(Cl)cc1O.Cl [NCL 158]	4
Cl.N=C(NN=C(c1ccc(Cl)cc1O)C1CCCC1)NN=C(c1ccc(Cl)cc1O)C1CCCC1 [NCL 159]	128
Cl.N=C(NN=Cc1ccc(OC(F)(F)F)cc1)NN=Cc1ccc(OC(F)(F)F)cc1 [NCL 160]	128
CC(=NNC(=N)NN=C(C)c1ccc(N2CCNCC2)cc1)c1ccc(N2CCNCC2)cc1.Cl [NCL 161]	128

What follows are compounds tested on VRE in the same assay as above. Settings: VRE 1; 24 hours; duplicate lines per compound.
Assay type: cell-based, Enterococcus spp.
Outline: as §1

SMILES	MIC (μg/ml) at 24 hours, VRE 1 [µg/mL]
CCC(=NNC(=N)NN=C(CC)c1ccc(Cl)cc1)c1ccc(Cl)cc1.Cl [NCL 153]	8
CCCCC(=NNC(=N)NN=C(CCCC)c1ccc(Cl)cc1)c1ccc(Cl)cc1.Cl [NCL 154]	>128
C/C(=N\NC(=N)N/N=C(\C)c1ccc(Br)cc1)c1ccc(Br)cc1.Cl [NCL 155]	16
CCCC(=NNC(=N)NN=C(CCC)c1ccc(Cl)cc1)c1ccc(Cl)cc1.Cl [NCL 156]	>128
Cl.N=C(NN=Cc1ccc(Cl)cc1N)NN=Cc1ccc(Cl)cc1N [NCL 157]	2
CCC(=NNC(=N)NN=C(CC)c1ccc(Cl)cc1O)c1ccc(Cl)cc1O.Cl [NCL 158]	4
Cl.N=C(NN=C(c1ccc(Cl)cc1O)C1CCCC1)NN=C(c1ccc(Cl)cc1O)C1CCCC1 [NCL 159]	16
Cl.N=C(NN=Cc1ccc(OC(F)(F)F)cc1)NN=Cc1ccc(OC(F)(F)F)cc1 [NCL 160]	16
CC(=NNC(=N)NN=C(C)c1ccc(N2CCNCC2)cc1)c1ccc(N2CCNCC2)cc1.Cl [NCL 161]	128

Same assay, conditions: VRE 2; 24 hours; duplicate lines per compound

SMILES	MIC (μg/ml) at 24 hours, VRE 2
CCC(=NNC(=N)NN=C(CC)c1ccc(Cl)cc1)c1ccc(Cl)cc1.Cl [NCL 153]	8 µg/mL
CCCCC(=NNC(=N)NN=C(CCCC)c1ccc(Cl)cc1)c1ccc(Cl)cc1.Cl [NCL 154]	>128 µg/mL
C/C(=N\NC(=N)N/N=C(\C)c1ccc(Br)cc1)c1ccc(Br)cc1.Cl [NCL 155]	8 µg/mL
CCCC(=NNC(=N)NN=C(CCC)c1ccc(Cl)cc1)c1ccc(Cl)cc1.Cl [NCL 156]	>128 µg/mL
Cl.N=C(NN=Cc1ccc(Cl)cc1N)NN=Cc1ccc(Cl)cc1N [NCL 157]	2 µg/mL and 4 µg/mL
CCC(=NNC(=N)NN=C(CC)c1ccc(Cl)cc1O)c1ccc(Cl)cc1O.Cl [NCL 158]	4 µg/mL
Cl.N=C(NN=C(c1ccc(Cl)cc1O)C1CCCC1)NN=C(c1ccc(Cl)cc1O)C1CCCC1 [NCL 159]	128 µg/mL
Cl.N=C(NN=Cc1ccc(OC(F)(F)F)cc1)NN=Cc1ccc(OC(F)(F)F)cc1 [NCL 160]	64 µg/mL
CC(=NNC(=N)NN=C(C)c1ccc(N2CCNCC2)cc1)c1ccc(N2CCNCC2)cc1.Cl [NCL 161]	128 µg/mL

The compounds below were run on Escherichia coli in the same assay as above. Settings: E. coli; 24 hours; duplicate lines per compound.
Assay type: cell-based

SMILES	MIC (μg/ml) at 24 hours, E. coli [µg/mL]
CCC(=NNC(=N)NN=C(CC)c1ccc(Cl)cc1)c1ccc(Cl)cc1.Cl [NCL 153]	>128
CCCCC(=NNC(=N)NN=C(CCCC)c1ccc(Cl)cc1)c1ccc(Cl)cc1.Cl [NCL 154]	>128
C/C(=N\NC(=N)N/N=C(\C)c1ccc(Br)cc1)c1ccc(Br)cc1.Cl [NCL 155]	>128
CCCC(=NNC(=N)NN=C(CCC)c1ccc(Cl)cc1)c1ccc(Cl)cc1.Cl [NCL 156]	>128
Cl.N=C(NN=Cc1ccc(Cl)cc1N)NN=Cc1ccc(Cl)cc1N [NCL 157]	>128
CCC(=NNC(=N)NN=C(CC)c1ccc(Cl)cc1O)c1ccc(Cl)cc1O.Cl [NCL 158]	>128
Cl.N=C(NN=C(c1ccc(Cl)cc1O)C1CCCC1)NN=C(c1ccc(Cl)cc1O)C1CCCC1 [NCL 159]	>128
Cl.N=C(NN=Cc1ccc(OC(F)(F)F)cc1)NN=Cc1ccc(OC(F)(F)F)cc1 [NCL 160]	>128
CC(=NNC(=N)NN=C(C)c1ccc(N2CCNCC2)cc1)c1ccc(N2CCNCC2)cc1.Cl [NCL 161]	>128

These compounds were tested on Pseudomonas aeruginosa in the same assay as above. Settings: P. aeruginosa; 24 hours; duplicate lines per compound.
Assay type: cell-based

SMILES	MIC (μg/ml) at 24 hours, P. aeruginosa [µg/mL]
CCC(=NNC(=N)NN=C(CC)c1ccc(Cl)cc1)c1ccc(Cl)cc1.Cl [NCL 153]	>128
CCCCC(=NNC(=N)NN=C(CCCC)c1ccc(Cl)cc1)c1ccc(Cl)cc1.Cl [NCL 154]	>128
C/C(=N\NC(=N)N/N=C(\C)c1ccc(Br)cc1)c1ccc(Br)cc1.Cl [NCL 155]	>128
CCCC(=NNC(=N)NN=C(CCC)c1ccc(Cl)cc1)c1ccc(Cl)cc1.Cl [NCL 156]	>128
Cl.N=C(NN=Cc1ccc(Cl)cc1N)NN=Cc1ccc(Cl)cc1N [NCL 157]	>128
CCC(=NNC(=N)NN=C(CC)c1ccc(Cl)cc1O)c1ccc(Cl)cc1O.Cl [NCL 158]	>128
Cl.N=C(NN=C(c1ccc(Cl)cc1O)C1CCCC1)NN=C(c1ccc(Cl)cc1O)C1CCCC1 [NCL 159]	>128
Cl.N=C(NN=Cc1ccc(OC(F)(F)F)cc1)NN=Cc1ccc(OC(F)(F)F)cc1 [NCL 160]	>128
CC(=NNC(=N)NN=C(C)c1ccc(N2CCNCC2)cc1)c1ccc(N2CCNCC2)cc1.Cl [NCL 161]	>128
